Measured values reported in ChEMBL document CHEMBL1123584, “Xanthine functionalized congeners as potent ligands at A2-adenosine receptors” (J Med Chem, 1987).
Each block holds one molecule with its values, some of them ahead of it.

Legend:
[1] = Partition coefficient (logP); type: physicochemical; conditions: octanol/water
[2] = target: T1, Adenosine A2 receptor (Homo sapiens) (UniProt P29275+P29274); experiment: Antagonism of NECA-induced stimulation of adenylate cyclase activity in human platelet membranes at A2-adenosine receptor; type: functional, cell membranes
[3] = target: T2, Adenosine receptor A1 (Rattus norvegicus, UniProt P25099); experiment: Inhibition of [3H]- PIA binding at adenosine A1 receptor on rat cerebral cortex membranes.; type: cell membranes, Membrane
T2 sequence (P25099 whole entry): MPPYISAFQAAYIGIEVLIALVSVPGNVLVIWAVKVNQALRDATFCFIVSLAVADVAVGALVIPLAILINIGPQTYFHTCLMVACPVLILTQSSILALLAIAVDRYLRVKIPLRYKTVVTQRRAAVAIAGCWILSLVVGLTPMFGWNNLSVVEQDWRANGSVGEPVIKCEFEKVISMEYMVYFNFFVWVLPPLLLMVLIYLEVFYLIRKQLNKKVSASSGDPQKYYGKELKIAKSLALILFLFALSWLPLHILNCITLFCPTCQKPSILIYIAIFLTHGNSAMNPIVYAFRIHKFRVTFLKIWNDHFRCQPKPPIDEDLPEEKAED

[4] = target: T1, Adenosine A2 receptor (Homo sapiens); experiment: Antagonism of NECA-induced stimulation of adenylate cyclase activity in human platelet membranes at A2-adenosine receptor; value ranges from 106-173; type: functional, cell membranes
[5] = target: T1, Adenosine A2 receptor (Homo sapiens); experiment: Antagonism of NECA-induced stimulation of adenylate cyclase activity in human platelet membranes at A2-adenosine receptor; value ranges from 35-40; type: functional, cell membranes
[6] = target: T1, Adenosine A2 receptor (Homo sapiens); experiment: Antagonism of NECA-induced stimulation of adenylate cyclase activity in human platelet membranes at A2-adenosine receptor; value ranges from 15-51; type: functional, cell membranes
[7] = target: T1, Adenosine A2 receptor (Homo sapiens); experiment: Antagonism of NECA-induced stimulation of adenylate cyclase activity in human platelet membranes at A2-adenosine receptor; value ranges from 54-98; type: functional, cell membranes
[8] = target: T1, Adenosine A2 receptor (Homo sapiens); experiment: Antagonism of NECA-induced stimulation of adenylate cyclase activity in human platelet membranes at A2-adenosine receptor; value ranges from […]-[…]; type: functional, cell membranes
[9] = target: T1, Adenosine A2 receptor (Homo sapiens); experiment: Antagonism of NECA-induced stimulation of adenylate cyclase activity in human platelet membranes at A2-adenosine receptor; value ranges from 17-30; type: functional, cell membranes
[10] = target: T1, Adenosine A2 receptor (Homo sapiens); experiment: Antagonism of NECA-induced stimulation of adenylate cyclase activity in human platelet membranes at A2-adenosine receptor; value ranges from 30-54; type: functional, cell membranes
[11] = target: T1, Adenosine A2 receptor (Homo sapiens); experiment: Antagonism of NECA-induced stimulation of adenylate cyclase activity in human platelet membranes at A2-adenosine receptor; value ranges from 100-540; type: functional, cell membranes
[12] = target: T1, Adenosine A2 receptor (Homo sapiens); experiment: Antagonism of NECA-induced stimulation of adenylate cyclase activity in human platelet membranes at A2-adenosine receptor; value ranges from 75-370; type: functional, cell membranes

logP [1]: -0.63
Compound: Cn1c(=O)c2[nH]c(-c3ccc(OCC(=O)NCCN)cc3)nc2n(C)c1=O

Kb [2]: 1900 nM
Compound: Cn1c(=O)c2nc(-c3ccccc3)[nH]c2n(C)c1=O

Ki [3]: 13 nM
Compound: CCCn1c(=O)c2nc(-c3ccc(OCC(=O)OCC)cc3)[nH]c2n(CCC)c1=O

Ki [3]: 0.87 nM
Compound: CCCn1c(=O)c2[nH]c(-c3ccc(OCC(=O)NCCNC(=O)[C@@H](N)CCCCN)cc3)nc2n(CCC)c1=O

Kb [4]: 135 nM
Compound: CCCn1c(=O)c2nc(-c3ccc(OCOC(=O)CC)cc3)[nH]c2n(CCC)c1=O

Kb [5]: 37 nM
Compound: CCCn1c(=O)c2nc(-c3ccc(OCC(=O)NCCNC(=O)[C@@H](N)CCCCN)cc3)[nH]c2n(CCC)c1=O

Kb [6]: 28 nM
Compound: CCn1c(=O)c2nc(-c3ccc(OCC(=O)Nc4ccc(CC(=O)NCCN)cc4)cc3)[nH]c2n(CC)c1=O

Ki [3]: 90 nM
Kb [7]: 73 nM
Compound: CCn1c(=O)c2nc(-c3ccc(OCC(=O)OC(C)C)cc3)[nH]c2n(CC)c1=O

logP [1]: -0.05
Kb [8]: 63 nM
Compound: Cn1c(=O)c2nc(-c3ccc(OCC(=O)Nc4ccc(CC(=O)NCCN)cc4)cc3)[nH]c2n(C)c1=O

Kb [8]: 210 nM
Compound: CCn1c(=O)c2nc(-c3ccc(OCC(=O)Nc4ccc(CC(=O)OC)cc4)cc3)[nH]c2n(CC)c1=O

Kb [2]: 210 nM
Compound: CCn1c(=O)c2nc(-c3ccccc3)[nH]c2n(CC)c1=O

Kb [8]: 100 nM
Compound: CCn1c(=O)c2nc(-c3ccc(OCC(=O)Nc4ccc(C)cc4)cc3)[nH]c2n(CC)c1=O

logP [1]: -1.2
Kb [9]: 23 nM
Compound: CCn1c(=O)c2nc(-c3ccc(OCC(=O)NCCNC(=O)[C@@H](N)CCCCN)cc3)[nH]c2n(CC)c1=O

Kb [10]: 40 nM
Compound: Cn1c(=O)c2nc(-c3ccc(OCC(=O)NCCN)cc3)[nH]c2n(C)c1=O

logP [1]: 0.81
Compound: CCCn1c(=O)c2[nH]c(-c3ccc(OCC(=O)NCCN)cc3)nc2n(CCC)c1=O [XANTHINE AMINE CONGENER]

Kb [8]: 21 nM
Compound: CCn1c(=O)c2nc(-c3ccc(OCC(=O)NCCN)cc3)[nH]c2n(CC)c1=O

Kb [11]: 230 nM
Compound: CCn1c(=O)c2nc(-c3ccc(OCC(=O)NCCNC(=O)C(CCCCNC(=O)OCc4ccccc4)NC(=O)OC(C)(C)C)cc3)[nH]c2n(CC)c1=O (stereo not drawn)

Kb [12]: 170 nM
Compound: CCC(=O)OCOc1ccc(-c2nc3c(=O)n(CC)c(=O)n(CC)c3[nH]2)cc1

logP [1]: -0.06
Compound: CCn1c(=O)c2[nH]c(-c3ccc(OCC(=O)NCCN)cc3)nc2n(CC)c1=O

Ki [3]: 140 nM
Compound: CCOC(=O)COc1ccc(-c2nc3c(=O)n(CC)c(=O)n(CC)c3[nH]2)cc1
